Source: PubChem BioAssay AID1919002 (Molecular Pharmacology Branch, DTP, NCI, 2023)
One block for each compound: values may come before it.

Test system: 743489-274-T-PDC complex spheroid growth
Assay: Anticancer human tumor 743489-274-T-PDC patient-derived renal cell carcinoma cell line growth inhibition [AhR]
Conditions: for IC50: curve of first compound; for viability, T/C: stronger effect = lower value
Method in brief: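 Agents were dosed in half-log steps down from roughly clinical Cmax, or from 10 microM where Cmax was unknown, alone and with AhR antagonists. Read-out: percent test/control growth of tumor spheroids containing HUVEC and MSC stromal cells.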

[1] = second compound 0.1 µM, first compound 0.0316 µM
[2] = second compound 0.1 µM, first compound 0.1 µM
[3] = second compound 0.1 µM, first compound 0.316 µM
[4] = second compound 0.1 µM, first compound 1 µM
[5] = second compound 0.1 µM, first compound 3.16 µM
[6] = second compound 0.1 µM, first compound 10 µM
[7] = second compound 0.316 µM, first compound 0.0316 µM
[8] = second compound 0.316 µM, first compound 0.1 µM
[9] = second compound 0.316 µM, first compound 0.316 µM
[10] = second compound 0.316 µM, first compound 1 µM
[11] = second compound 0.316 µM, first compound 3.16 µM
[12] = second compound 0.316 µM, first compound 10 µM
[13] = second compound 1 µM, first compound 0.0316 µM
[14] = second compound 1 µM, first compound 0.1 µM
[15] = second compound 1 µM, first compound 0.316 µM
[16] = second compound 1 µM, first compound 1 µM
[17] = second compound 1 µM, first compound 3.16 µM
[18] = second compound 1 µM, first compound 10 µM
[19] = second compound 3.16 µM, first compound 0.0316 µM
[20] = second compound 3.16 µM, first compound 0.1 µM
[21] = second compound 3.16 µM, first compound 0.316 µM
[22] = second compound 3.16 µM, first compound 1 µM
[23] = second compound 3.16 µM, first compound 3.16 µM
[24] = second compound 3.16 µM, first compound 10 µM
[25] = second compound 10 µM, first compound 0.0316 µM
[26] = second compound 10 µM, first compound 0.1 µM
[27] = second compound 10 µM, first compound 0.316 µM
[28] = second compound 10 µM, first compound 1 µM
[29] = second compound 10 µM, first compound 3.16 µM
[30] = second compound 10 µM, first compound 10 µM
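Also: spheroids exposed to agents for 7 days before readout.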
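For viability, T/C in this document: 100% = DMSO vehicle control wells.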

IC50 (second compound 0.1 µM): > 0.3 µM
IC50 (second compound 0.316 µM): > 0.3 µM
IC50 (second compound 1 µM): > 0.3 µM
IC50 (second compound 3.16 µM): > 0.3 µM
IC50 (second compound 10 µM): > 0.3 µM
SMILES: Nc1ncn(C2CC(O)C(CO)S2)c(=O)n1 (stereo not given) + CC(CO)NC(=O)c1cc(-c2ccc(Cl)cc2)nn(-c2cnn(C)c2)c1=O
viability, T/C (second compound 0.1 µM, first compound 0.000949 µM): 93.7%
viability, T/C (second compound 0.1 µM, first compound 0.003 µM): 111%
viability, T/C (second compound 0.1 µM, first compound 0.00949 µM): 102%
viability, T/C (second compound 0.1 µM, first compound 0.03 µM): 96%
viability, T/C (second compound 0.1 µM, first compound 0.0949 µM): 96%
viability, T/C (second compound 0.1 µM, first compound 0.3 µM): 114%
viability, T/C (second compound 0.316 µM, first compound 0.000949 µM): 103%
viability, T/C (second compound 0.316 µM, first compound 0.003 µM): 92.9%
viability, T/C (second compound 0.316 µM, first compound 0.00949 µM): 93%
viability, T/C (second compound 0.316 µM, first compound 0.03 µM): 88%
viability, T/C (second compound 0.316 µM, first compound 0.0949 µM): 86.9%
viability, T/C (second compound 0.316 µM, first compound 0.3 µM): 95.1%
viability, T/C (second compound 1 µM, first compound 0.000949 µM): 92.4%
viability, T/C (second compound 1 µM, first compound 0.003 µM): 89.3%
viability, T/C (second compound 1 µM, first compound 0.00949 µM): 91.7%
viability, T/C (second compound 1 µM, first compound 0.03 µM): 101%
viability, T/C (second compound 1 µM, first compound 0.0949 µM): 87.7%
viability, T/C (second compound 1 µM, first compound 0.3 µM): 101%
viability, T/C (second compound 3.16 µM, first compound 0.000949 µM): 103%
viability, T/C (second compound 3.16 µM, first compound 0.003 µM): 95.7%
viability, T/C (second compound 3.16 µM, first compound 0.00949 µM): 84.4%
viability, T/C (second compound 3.16 µM, first compound 0.03 µM): 88.3%
viability, T/C (second compound 3.16 µM, first compound 0.0949 µM): 86.8%
viability, T/C (second compound 3.16 µM, first compound 0.3 µM): 92.9%
viability, T/C (second compound 10 µM, first compound 0.000949 µM): 95.5%
viability, T/C (second compound 10 µM, first compound 0.003 µM): 95.1%
viability, T/C (second compound 10 µM, first compound 0.00949 µM): 91.2%
viability, T/C (second compound 10 µM, first compound 0.03 µM): 95.1%
viability, T/C (second compound 10 µM, first compound 0.0949 µM): 93.4%
viability, T/C (second compound 10 µM, first compound 0.3 µM): 86.9%

IC50 (second compound 0.1 µM): 9.26 µM
IC50 (second compound 0.316 µM): 7.72 µM
IC50 (second compound 1 µM): 9.6 µM
IC50 (second compound 3.16 µM): 8.29 µM
IC50 (second compound 10 µM): 7.34 µM
SMILES: O=C(C=Cc1cccc(S(=O)(=O)Nc2ccccc2)c1)NO + CC(CO)NC(=O)c1cc(-c2ccc(Cl)cc2)nn(-c2cnn(C)c2)c1=O
viability, T/C [1]: 97.6%
viability, T/C [2]: 87.1%
viability, T/C [3]: 86.9%
viability, T/C [4]: 80.3%
viability, T/C [5]: 76.4%
viability, T/C [6]: 47.1%
viability, T/C [7]: 82.4%
viability, T/C [8]: 88.5%
viability, T/C [9]: 74.4%
viability, T/C [10]: 76.9%
viability, T/C [11]: 61.8%
viability, T/C [12]: 46.4%
viability, T/C [13]: 82.5%
viability, T/C [14]: 89%
viability, T/C [15]: 84%
viability, T/C [16]: 75.8%
viability, T/C [17]: 62.7%
viability, T/C [18]: 49.4%
viability, T/C [19]: 82.5%
viability, T/C [20]: 80%
viability, T/C [21]: 76.2%
viability, T/C [22]: 70.2%
viability, T/C [23]: 59.2%
viability, T/C [24]: 48.3%
viability, T/C [25]: 85.3%
viability, T/C [26]: 87.8%
viability, T/C [27]: 83.2%
viability, T/C [28]: 74.7%
viability, T/C [29]: 66.9%
viability, T/C [30]: 43.9%

IC50 (second compound 0.1 µM): > 10 µM
IC50 (second compound 0.316 µM): > 10 µM
IC50 (second compound 1 µM): > 10 µM
IC50 (second compound 3.16 µM): > 10 µM
IC50 (second compound 10 µM): > 10 µM
SMILES: O=C(c1cc(Cc2n[nH]c(=O)c3ccccc23)ccc1F)N1CCN(C(=O)C2CC2)CC1 + CC(CO)NC(=O)c1cc(-c2ccc(Cl)cc2)nn(-c2cnn(C)c2)c1=O
viability, T/C [1]: 106%
viability, T/C [2]: 100%
viability, T/C [3]: 98.3%
viability, T/C [4]: 103%
viability, T/C [5]: 95.3%
viability, T/C [6]: 101%
viability, T/C [7]: 86.3%
viability, T/C [8]: 95.2%
viability, T/C [9]: 91.8%
viability, T/C [10]: 91.9%
viability, T/C [11]: 91%
viability, T/C [12]: 96.1%
viability, T/C [13]: 93.4%
viability, T/C [14]: 96.3%
viability, T/C [15]: 100%
viability, T/C [16]: 93.1%
viability, T/C [17]: 94.8%
viability, T/C [18]: 97%
viability, T/C [19]: 93.6%
viability, T/C [20]: 92.5%
viability, T/C [21]: 99.4%
viability, T/C [22]: 87.5%
viability, T/C [23]: 96.4%
viability, T/C [24]: 92.9%
viability, T/C [25]: 103%
viability, T/C [26]: 109%
viability, T/C [27]: 97.9%
viability, T/C [28]: 96.7%
viability, T/C [29]: 93.7%
viability, T/C [30]: 105%
